Data as given in the supplement of paper PMC10307832.

Key:
Assay in all cases: relative viability (nuclei count vs DMSO), 5 days (fraction); higher = more cells survive
NCI-H650 = test system: NCI-H650
In short: (§1)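 Dosing by pin tool came one day after lung cancer cell lines were seeded in 1536-well plates, using either one drug or a fixed anchor-drug dose plus five library-drug doses (not always all listed) in √10 steps. After 5 days, nuclei were counted on 4× images. Relative viability is treated-well nuclei count divided by vehicle-well nuclei count, and values are medians of duplicate plates.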

LOU-NH91 = test system: LOU-NH91
In short: as §1

NCI-H3122 = test system: NCI-H3122
In short: as §1

NCI-H596 = test system: NCI-H596
In short: as §1

NCI-H1993 = test system: NCI-H1993
In short: as §1

NCI-H441 = test system: NCI-H441
In short: as §1

HARA = test system: HARA
In short: as §1

EMC-BAC-2 = test system: EMC-BAC-2
In short: as §1

201T = test system: 201T
In short: as §1

NCI-H1666 = test system: NCI-H1666
In short: as §1

NCI-H2347 = test system: NCI-H2347
In short: as §1

LCLC-103H = test system: LCLC-103H
In short: as §1

NCI-H23 = test system: NCI-H23
In short: as §1

NCI-H2087 = test system: NCI-H2087
In short: as §1

NCI-H2126 = test system: NCI-H2126
In short: as §1

NCI-H727 = test system: NCI-H727
In short: as §1

HCC-44 = test system: HCC-44
In short: as §1

NCI-H647 = test system: NCI-H647
In short: as §1

NCI-H838 = test system: NCI-H838
In short: as §1

NCI-H1395 = test system: NCI-H1395
In short: as §1

BEN = test system: BEN
In short: as §1

O=C(O)c1ccc(-c2c[nH]c3ncc(-c4ccccc4)cc23)cc1C1CCCC1 + NC(=O)Nc1cc(-c2cccc(F)c2)sc1C(=O)N[C@H]1CCCNC1 [AZD7762] (partner 0.2 µM)
relative viability (NCI-H650; first compound 0.04 µM): 1.03 | relative viability (NCI-H650; first compound 0.1265 µM): 1.11 | relative viability (NCI-H650; first compound 0.4 µM): 1.02 | relative viability (NCI-H650; first compound 1.265 µM): 0.947 | relative viability (LOU-NH91; first compound 0.04 µM): 0.818 | relative viability (LOU-NH91; first compound 0.1265 µM): 0.866 | relative viability (LOU-NH91; first compound 0.4 µM): 0.787 | relative viability (LOU-NH91; first compound 1.265 µM): 0.769 | relative viability (NCI-H3122; first compound 0.04 µM): 0.97 | relative viability (NCI-H3122; first compound 0.1265 µM): 1.04 | relative viability (NCI-H3122; first compound 0.4 µM): 1.05 | relative viability (NCI-H3122; first compound 1.265 µM): 0.999 | relative viability (NCI-H596; first compound 0.04 µM): 1.05 | relative viability (NCI-H596; first compound 0.1265 µM): 1.21 | relative viability (NCI-H596; first compound 0.4 µM): 1.08 | relative viability (NCI-H596; first compound 1.265 µM): 1.17 | relative viability (NCI-H1993; first compound 0.04 µM): 0.776 | relative viability (NCI-H1993; first compound 0.1265 µM): 0.814 | relative viability (NCI-H1993; first compound 0.4 µM): 0.832 | relative viability (NCI-H1993; first compound 1.265 µM): 0.615 | relative viability (NCI-H441; first compound 0.04 µM): 1.01 | relative viability (NCI-H441; first compound 0.1265 µM): 1.23 | relative viability (NCI-H441; first compound 0.4 µM): 1.11 | relative viability (NCI-H441; first compound 1.265 µM): 1.14 | relative viability (HARA; first compound 0.04 µM): 0.4 | relative viability (HARA; first compound 0.1265 µM): 0.596 | relative viability (HARA; first compound 0.4 µM): 0.385 | relative viability (HARA; first compound 1.265 µM): 0.554 | relative viability (EMC-BAC-2; first compound 0.04 µM): 1.1 | relative viability (EMC-BAC-2; first compound 0.1265 µM): 1.38 | relative viability (EMC-BAC-2; first compound 0.4 µM): 1.23 | relative viability (EMC-BAC-2; first compound 1.265 µM): 0.981 | relative viability (201T; first compound 0.04 µM): 0.599 | relative viability (201T; first compound 0.1265 µM): 0.654 | relative viability (201T; first compound 0.4 µM): 0.664 | relative viability (201T; first compound 1.265 µM): 0.663 | relative viability (NCI-H1666; first compound 0.04 µM): 0.798 | relative viability (NCI-H1666; first compound 0.1265 µM): 1 | relative viability (NCI-H1666; first compound 0.4 µM): 0.875 | relative viability (NCI-H1666; first compound 1.265 µM): 0.728 | relative viability (NCI-H2347; first compound 0.04 µM): 0.821 | relative viability (NCI-H2347; first compound 0.1265 µM): 0.935 | relative viability (NCI-H2347; first compound 0.4 µM): 0.797 | relative viability (NCI-H2347; first compound 1.265 µM): 0.878 | relative viability (LCLC-103H; first compound 0.04 µM): 0.832 | relative viability (LCLC-103H; first compound 0.1265 µM): 0.822 | relative viability (LCLC-103H; first compound 0.4 µM): 0.846 | relative viability (LCLC-103H; first compound 1.265 µM): 0.759 | relative viability (NCI-H23; first compound 0.04 µM): 0.218 | relative viability (NCI-H23; first compound 0.1265 µM): 0.297 | relative viability (NCI-H23; first compound 0.4 µM): 0.237 | relative viability (NCI-H23; first compound 1.265 µM): 0.328 | relative viability (NCI-H2087; first compound 0.04 µM): 1.29 | relative viability (NCI-H2087; first compound 0.1265 µM): 1.44 | relative viability (NCI-H2087; first compound 0.4 µM): 1.23 | relative viability (NCI-H2087; first compound 1.265 µM): 1.11 | relative viability (NCI-H2126; first compound 0.04 µM): 1.02 | relative viability (NCI-H2126; first compound 0.1265 µM): 1.11 | relative viability (NCI-H2126; first compound 0.4 µM): 1.08 | relative viability (NCI-H2126; first compound 1.265 µM): 1 | relative viability (NCI-H727; first compound 0.04 µM): 0.459 | relative viability (NCI-H727; first compound 0.1265 µM): 0.672 | relative viability (NCI-H727; first compound 0.4 µM): 0.679 | relative viability (NCI-H727; first compound 1.265 µM): 0.612 | relative viability (HCC-44; first compound 0.04 µM): 1.07 | relative viability (HCC-44; first compound 0.1265 µM): 1.03 | relative viability (HCC-44; first compound 0.4 µM): 1.01 | relative viability (HCC-44; first compound 1.265 µM): 0.946 | relative viability (NCI-H647; first compound 0.04 µM): 0.437 | relative viability (NCI-H647; first compound 0.1265 µM): 0.55 | relative viability (NCI-H647; first compound 0.4 µM): 0.489 | relative viability (NCI-H647; first compound 1.265 µM): 0.408 | relative viability (NCI-H838; first compound 0.04 µM): 0.978 | relative viability (NCI-H838; first compound 0.1265 µM): 1.07 | relative viability (NCI-H838; first compound 0.4 µM): 0.992 | relative viability (NCI-H838; first compound 1.265 µM): 0.92 | relative viability (NCI-H1395; first compound 0.04 µM): 0.416 | relative viability (NCI-H1395; first compound 0.1265 µM): 0.416 | relative viability (NCI-H1395; first compound 0.4 µM): 0.409 | relative viability (NCI-H1395; first compound 1.265 µM): 0.462 | relative viability (BEN; first compound 0.04 µM): 0.529 | relative viability (BEN; first compound 0.1265 µM): 0.775 | relative viability (BEN; first compound 0.4 µM): 0.698 | relative viability (BEN; first compound 1.265 µM): 0.771
